Drawing on US8242280B2, “Fused ring heterocycle kinase modulators” (SGX Pharmaceuticals, Inc., priority 2007, dated 2012), this text covers IC50 and GI50 for 14 molecules.

Some results are limits rather than exact numbers.

Test [1] concerns the target T1, unphosphorylated T315I Abl kinase domain (Mus musculus, UniProt P00520, T315I).
T1 construct: purified and unphosphorylated T315I Abl kinase domain; made in house; host or cells: E. coli BL21(DE3) (Codon+RIL or pSA0145 strain)
T1 sequence (P00520 242-493 T315I limits assumed): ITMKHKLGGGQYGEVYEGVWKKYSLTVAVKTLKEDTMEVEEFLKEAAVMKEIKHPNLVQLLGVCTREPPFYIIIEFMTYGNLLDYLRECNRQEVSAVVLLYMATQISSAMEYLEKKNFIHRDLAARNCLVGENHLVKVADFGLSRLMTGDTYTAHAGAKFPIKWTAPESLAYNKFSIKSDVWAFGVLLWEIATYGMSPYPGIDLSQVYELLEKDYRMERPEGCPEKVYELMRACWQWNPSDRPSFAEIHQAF
Description: c-Abl T315I 0P bioassay (pyruvate kinase/lactate dehydrogenase coupled enzyme assay). In kind it is biochemical. To be noted: zero phosphorylation state (0P), 10 μM ATP, read-out: AbI T315I 0P IC50. An excerpt:
Although the first of these examples uses the kinase domain of a mutant form of Abl T315I (“Abl T315I KD”), the kinase assays may use various forms of mutant and wild type enzymes, including, for example, the entire protein, the kinase domain, or a portion thereof (e.g. Abl Y393F). The kinases used in the assays may also be of varying phosphorylation states. In the c-Abl example, a mutant kinase at a zero phosphorylation state was used. c-Abl Pyruvate Kinase/Lactate Dehydrogenase Coupled Enzyme Assay
In the c-Abl Pyruvate Kinase (PK)/Lactate Dehydrogenase (LDH) Coupled Assay the protein kinase dependant phosphorylation of a substrate peptide was coupled to the oxidation of NADH. The oxidation of NADH to NAD+ was detected by monitoring a decrease in absorbance at 340 nm.
Materials: Abl substrate peptide=EAIYAAPFAKKK (SEQ ID NO: 1)—OH (Biopeptide, San Diego, Calif.); pNADH (Sigma Cat#N-8129, FW=709.4); 2M MgC12; 1M HEPES buffer, pH 7.5; Phosphoenolpyruvate (PEP) (Sigma Cat#P-7002, FW=234); Lactate dehydrogenase (LDH) (Worthington Biochemical Cat#2756); Pyruvate Kinase (PK) (Sigma Cat#P-9136); ATP (Sigma Cat#A-3377, FW=551); Greiner 384-well UV star plate; and purified and unphosphorylated T315I Abl kinase domain.
Stock Solutions: 10 mM NADH (7.09 mg/ml in miliQH2O) made fresh daily; 10 mM Abl substrate peptide (13.4 mg/ml in miliQH2O) stored at −20° C.; 100 mM HEPES buffer, pH 7.5 (5 ml 1M stock+45 ml miliQH2O); 100 mM MgCl2 (5 ml 2M MgCl2+95 ml dH2O); 100 MM PEP (23.4 mg/ml in dH2O) stored at −20° C.; 10 mM ATP (5.51 mg/ml in dH2O) stored at −20° C. (diluted 50 μl into total of 10 ml miliQH2O daily=50 μM ATP working stock); 1000 U/ml PK (U/mg varies with lot) flash-frozen under liquid N2 and stored at −80° C.; and 1000 U/ml LDH (U/mg varies with lot) flash-frozen under liquid N2 and stored at −80° C.
Standard Assay Setup for 384-well format (50 μl reaction): 300 μM NADH; 10 mM MgCl2; 2 mM PEP; 45U/ml PK; 60 U/ml LDH; 200 μM Abl substrate peptide; 2.5 μl test compound (in DMSO); 2 μg/ml Abl kinase domain; 10 μM ATP; 100 mM HEPES buffer. Positive controls contained DMSO with no test compound. Negative controls contained 5 μl of 0.5M EDTA (50 mM in the assay). The dephosphorylated form of the c-Abl T315I mutant was used in the biochemical screening assays. The kinase reaction was initiated at time t=0 by the addition of ATP.
Activity was measured by following the time-dependent loss of NADH by absorbance spectroscopy at 340 nm. The linear portion of the resulting progress curve was then analyzed by linear regression to get the activity in absorbance units/time, reported as the slope of that best fit line (moles/unit time can be calculated from using molar extinction coefficient for NADH at 340 nm, 6250M^−1 cm^−1).
Data was evaluated using the equation: Z′=1−[3*(σ++σ−)/|μ+−μ−|](Zhang, et al., 1999 J Biomol Screening 4(2) 67-73), where μ denotes the mean and σ the standard deviation. The subscript designates positive or negative controls. The Z′ score for a robust screening assay should be ≧0.50. The typical threshold=μ+−3*σ+. Any value that falls below the threshold was designated a “hit”.
Dose response was analyzed using the equation: y=min+{(max−min)/(1+10^[compound]−logIC50)}, where y is the observed initial slope, max=the slope in the absence of inhibitor, min=the slope at infinite inhibitor, and the IC50 is the [compound] that corresponds to ½ the total observed amplitude (Amplitude=max−min).
To measure modulation, activation, or inhibition of Abl KD, a test compound was added to the assay at a range of concentrations. Inhibitors may inhibit Abl KD activity at an IC50 in the micromolar range, the nanomolar range, or, for example, in the subnanomolar range.
An open-reading frame for c-Abl was amplified from a Mus musculus (mouse) cDNA library prepared from freshly harvested mouse liver using a commercially available kit (invitrogen) by PCR using the following primers: […]
The c-Abl T315I KD (kinase domain) was purified as follows. […]

For test [2], the target named is Ba/F3 cells, ABL1 WT (Homo sapiens, UniProt P00519). Description: 96-well XTT cell survival assay, Ba/F3 ABL1 WT. The format is cell-based. To be noted: 72 hours, read-out: ABL1 WT XTT [Ba/F3] IC50. As for the experimental part: (§1) MV4-11 and THP cells were maintained in Iscove's Modified Dulbecco's Medium supplemented with 10% fetal bovine serum (FBS) and penicillin/streptomycin, Ba/F3 cells were maintained in RPMI 1640 supplemented with 10% FBS, penicillin/streptomycin and 5 ng/ml recombinant mouse IL-3.
(§2) Compounds were tested in the following assays in duplicate.
(§3) 96-well XTT assay: Cells (e.g. BaF3 315I, M351I, or E255K cells) were grown in growth media containing various concentrations of compounds (duplicates) on a 96-well plate for 72 hours at 37° C. The starting cell number was 5000-8000 cells per well and volume was 120 μl. At the end of the 72-hour incubation, 40 μl of XTT labeling mixture (50:1 solution of sodium 3′-[1-(phenylamino-carbonyl)-3,4-tetrazolium]-bis(4-methoxy-6-nitro)benzene sulfonic acid hydrate and Electron-coupling reagent: PMS (N-methyl dibenzopyrazine methyl sulfate) were added to each well of the plate. After an additional 2-6 hours of incubation at 37° C., the absorbance reading at 405 nm with background correction at 650 nm was measured with a spectrophotometer.

Test [3] concerns the target Ba/F3 cells, ABL1 T315I (Homo sapiens, UniProt P00519, T315I, cells depend on it). Description: 96-well XTT cell survival assay, Ba/F3 ABL1 T315I. In kind it is cell-based. To be noted: 72 hours, read-out: ABL1 T315I XTT [Ba/F3] IC50. As for the experimental part: as §1, §2, §3

As a reminder, the IC50 is the concentration needed to halve the response being measured. As for `COc1ccccc1-c1n[nH]c2ncc(-c3cccc(CO)n3)cc12`, the IC50 in test [1] was under 50 nM. The GI50 is under 1000 nM in test [2] and over 1000 nM in test [3].

`COc1ccccc1-c1n[nH]c2ncc(-c3cccc(C(C)(O)C(=O)N(C)C)c3)cc12` (stereo not drawn): the IC50 in test [1] was under 50 nM. Moreover, the GI50 in test [2] and in test [3] was over 1000 nM each time.

Regarding `COc1ccccc1-c1c[nH]c2ncc(-c3cccc(C(O)C(=O)N(C)C[C@@H](O)CO)c3)cc12` (stereo partly drawn), in test [1], the half-inhibitory concentration (IC50) was under 50 nM. Further, the GI50 in test [2] and in test [3] was under 1000 nM throughout.

With `CN(C)C(=O)C(O)c1cncc(-c2cnc3[nH]cc(-c4ccc(C(N)=O)cc4)c3c2)c1` (stereo not drawn), in test [1], the 50% inhibitory concentration (IC50) is under 50 nM. Moreover, the GI50 in test [2] and in test [3] was over 1000 nM throughout.

`COc1ccccc1-c1c[nH]c2ncc(-c3cncc(C(=O)C(=O)N(C)C)c3)cc12`: the concentration for half-maximal inhibition (IC50) in test [1] is under 50 nM. Moreover, the GI50 in test [2] and in test [3] was under 1000 nM throughout.

As to `COc1ccccc1-c1n[nH]c2ncc(-c3cccc(C(C)C(=O)N4CC(O)C4)c3)cc12` (stereo not drawn), the IC50 in test [1] was under 50 nM. The GI50 in test [2] and in test [3] was over 1000 nM throughout.

With `COc1ccccc1-c1c[nH]c2ncc(-c3cncc(C(O)C4CC4)c3)cc12` (stereo not drawn), in test [1], the IC50 was under 50 nM. The GI50 in test [2] and in test [3] was under 1000 nM each time.

As for `COc1ccccc1-c1c[nH]c2ncc(-c3cccc(C(CC(=O)N4CCC[C@@H]4CO)N4CCS(=O)(=O)CC4)c3)cc12` (stereo partly drawn), the IC50 in test [1] was 50 to 500 nM. In addition, the GI50 in test [2] and in test [3] was over 1000 nM in each case.

In the case of `COc1ccccc1-c1n[nH]c2ncc(-c3cccc(C(C)C(=O)N(C)C)c3)cc12` (stereo not drawn), in test [1], the IC50 was under 50 nM. In addition, the GI50 in test [2] and in test [3] was over 1000 nM each time.

Turning to `COc1ccccc1-c1n[nH]c2ncc(-c3cccc(CO)c3)cc12`, the half-inhibitory concentration (IC50) in test [1] is over 500 nM. Further, the GI50 in test [2] and in test [3] was under 1000 nM in each case.

Consider `COc1ccccc1-c1n[nH]c2ncc(-c3cccc(C(O)C(=O)N4CCC[C@@H]4CO)c3)cc12` (stereo partly drawn), for which the half-maximal inhibitory concentration (IC50) in test [1] was under 50 nM. Further, the GI50 in test [2] and in test [3] was under 1000 nM throughout.

Turning to `COc1ccc(F)cc1-c1c[nH]c2ncc(-c3cncc(C(O)C(=O)N(C)C)c3)cc12` (stereo not drawn), the IC50 in test [1] was under 50 nM. Also, the GI50 in test [2] and in test [3] was under 1000 nM each time.

With `COc1ccccc1-c1n[nH]c2ncc(-c3cccc(C(C)C(=O)N(C)CCN(C)C)c3)cc12` (stereo not drawn), the IC50 in test [1] is under 50 nM. For the same molecule, the GI50 in test [2] and in test [3] was over 1000 nM in each case.

For `CCN(CC)CCN(CC)C(=O)C(O)c1cccc(-c2cnc3[nH]nc(-c4ccccc4OC)c3c2)c1` (stereo not drawn), the IC50 in test [1] was under 50 nM. Moreover, the GI50 in test [2] and in test [3] was under 1000 nM each time.
